From PubChem BioAssay (NCI)
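Results reflect a 48-hour exposure of cells in 96-well plates to compound at five concentrations. TGI marks complete inhibition of growth.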

Assays:
Experiment in all cases: growth of human tumour cells (NCI), 48 h
HT29 colon = test system: HT29 colon
PC-3 prostate = test system: PC-3 prostate
MDA-N = test system: MDA-N
A498 renal = test system: A498 renal
SR leukemia = test system: SR leukemia
SF-539 CNS = test system: SF-539 CNS
BT-549 breast = test system: BT-549 breast
SW-620 colon = test system: SW-620 colon
M14 melanoma = test system: M14 melanoma
TK-10 renal = test system: TK-10 renal

Row | SMILES | TGI (HT29 colon) [µM] | TGI (PC-3 prostate) [µM] | TGI (MDA-N) [µM] | TGI (A498 renal) [µM] | TGI (SR leukemia) [µM] | TGI (SF-539 CNS) [µM] | TGI (BT-549 breast) [µM] | TGI (SW-620 colon) [µM] | TGI (M14 melanoma) [µM] | TGI (TK-10 renal) [µM]
1 | Cn1c2ccccc2c2c3c(c4c5ccccc5n(C)c4c21)C(=O)N(c1ccccc1)C3=O | > 100 | > 100 | > 100 | > 100 | > 100 | > 100 | > 100 | > 100 | > 100 | > 100
2 | Fc1ccc2c(c1)nc1n2C(c2c(F)cccc2F)SC1 (configuration not stated) | > 100 | > 100 | > 100 | > 100 | 58.5 | > 100 | > 100 | > 100 | > 100 | > 100
3 | CC(C)(C)OC(=O)NNCC(O)COc1ccccc1 (configuration not stated) | > 100 | > 100 | > 100 | > 100 | > 100 | > 100 | > 100 | > 100 | > 100 | > 100
4 | COc1ccc(C2NC(N)=C(C#N)C3=C2C(C)CCC3)cc1OC (configuration not stated) | > 100 | > 100 | > 100 |  | 23 | > 100 | > 100 | > 100 | > 100 | > 100
5 | O=c1[nH]c2ccc(C(F)(F)F)cc2nc1C(F)(F)F | > 100 | 62.7 | > 100 | 87.5 | > 100 | 64.2 | 89.8 |  | > 100 | > 100
6 | NS(=O)(=O)c1ccc(NCc2nc3ccccc3[nH]2)cc1 | > 100 | > 100 | > 100 | > 100 |  | > 100 | > 100 |  | > 100 | > 100
7 | Cc1cc(O)c(C(C)C)cc1C(=S)Nc1ccc(Cl)cc1 | 27.9 | 23 | 23.7 | 29.7 | 20.4 | 29.6 | 30.7 | 33.9 |  | 
8 | CC(C)=CCC[C@@H](C)C1=C(O)C(Nc2ccccc2)=C(C)C(=O)C1=O | > 96.3 | > 100 | > 100 | 87.1 | > 100 | 84.8 | > 100 | > 100 | 34.9 | > 100
9 | Cc1nccn1S(=O)(=O)c1ccc(Cl)cc1 | > 100 | > 100 | 51 | > 100 | > 100 | > 100 | > 100 | > 100 | > 100 | > 100
10 | CC(C)=C=CP(=O)(O)c1ccccc1 | > 100 | > 100 | > 100 | > 100 | > 100 | > 100 |  | > 100 | > 100 | > 100
11 | COc1ccc(/C=C(/c2ccc(OC)cc2)c2c(Cl)cc(Cl)c(/C(=C\c3ccc(OC)cc3)c3ccc(OC)cc3)c2N=Nc2ccccc2)cc1 | > 100 | > 100 |  | > 100 |  | > 100 | > 100 | > 100 | > 100 | > 100
12 | COc1cc2nc(-c3cccs3)nc(N3C(c4cc(OC)c(OC)c(OC)c4)=NNC(=O)c4ccccc43)c2cc1OC | > 100 | > 100 |  | > 100 | > 100 | 44.6 | 39.6 |  | > 100 | 51.9
13 | N#Cc1c(N2CCCC2)nsc1Nc1ccccc1 | > 100 | > 100 | > 100 | > 100 | > 100 | > 100 |  | > 100 | > 100 | > 100
14 | Clc1ncnc2c1nc(C#Cc1ccccc1)n2C1CCCCO1 (configuration not stated) | 3.98 | 11.8 | 8.12 | 8.84 |  | 4.28 | 4.1 | 4.94 | 4.39 | 5.11
15 | COc1cc(-c2nc(SC)nc3c2CCc2ccccc2-3)cc(OC)c1OC | > 100 | > 100 |  | > 100 |  | > 100 | > 100 | > 100 | > 100 | 
16 | COc1ccc(/C=C2\OC(=O)C(Cl)=C2c2ccc(OC)c(Cl)c2)cc1 | > 100 | > 100 | 47.1 | 39.1 | > 100 | 33.2 |  | > 100 | 76.9 | 45.6
17 | c1ccc(OCc2nnc(CCCCCCCCc3nnc(COc4ccccc4)o3)o2)cc1 | > 100 | > 100 | > 100 | > 100 |  | > 100 | > 100 | > 100 | > 100 | > 100
18 | CCOC(=O)C1=C(C)N(Cc2ccccc2)C2(O)C(OC)CC(=O)C3C(=O)N(c4ccccc4)C(=O)C132 (configuration not stated) | 23.9 | 50.8 |  | 50.6 | 86.8 | 48.6 | 24.3 | > 100 | > 100 | 53
19 | ClC1=C(Cl)C2OC3C=CCC3OC2C(Cl)=C1Cl (configuration not stated) | 72.1 | > 100 | > 100 | > 100 | > 100 | > 100 |  | > 100 | > 100 | > 100
20 | OCC(S)CS.[Bi] (configuration not stated) | 46.4 | 27.3 | 34.4 | 56.3 | > 100 | > 100 | 27.8 | > 100 | 29.5 | 32.4
21 | CCC(C)N1CN(c2ccccc2)C2(CCN(CCCC3(c4ccc(F)cc4)OCCO3)CC2)C1=O (configuration not stated) | > 37.5 | 11.4 | 17.9 | 37 | 23.5 | 10.1 | 5.82 | 28.8 | > 35.7 | 20.7
22 | Cc1ccc(C)c2c1n1c(=O)n(C)c(=O)n21 | > 100 | > 100 | > 100 | > 100 |  | > 100 | > 100 | > 100 | > 100 | > 100
23 | Cc1ccsc1/C=N/Nc1cc(C)c2ccccc2n1 | 15 | 51.4 | 29.3 | 23 |  |  | 44.8 | 48.7 | 34.4 | 31.9
